Laboratory results: patent US20250228243A1, “METHODS AND COMPOSITIONS FOR PPO HERBICIDE TOLERANCE” (Monsanto Technology LLC, priority 2024, published 2025)

Key:
Assay type in all cases: in vivo
Settings in all cases: 15 days after application, 2-4 leaf stage, 0.5% v/v Mero, scale 0-100 (percentage of leaf area damaged), average of 4 replicates
[1] = test system: Corn - Hybrid, Conventional; assay: Herbicide injury rating, greenhouse, conventional hybrid corn
Experimental: (§1) Seeds of the regenerated transgenic plants described above were sown in 12-cm tall plastic pots containing standard soil (14.7% sand, 19.9% clay, 65.4% silt, and 1.8% organic matter). Transgenic cotton and corn seed were sown at a density of one seed per pot, whereas soybean was sown at a density of three seeds per pot. Plants were grown in a greenhouse with 60% relative humidity in a light cycle of 13 hour day and 11 hour night. The temperature was kept at 23° C. during the day and 12° C. at night. Herbicide tolerance of transgenic soybean, inbred corn, hybrid corn, and cotton plants, to herbicidal formulations comprising any of A1 to A3 and A7 was measured by applying respective formulations to plants at the 2-4 leaf stage (corresponding to BBCH 12-14) at dose rates of 100 or 200 g ai/ha. Methylated rapeseed oil (Mero) is used as an adjuvant and added to the spray mix for each herbicide at 0.5% v/v. Plants were visually assessed for herbicide injury at the following time points: 8 days, 15 days, 22 days after application. Unsprayed transgenic plants were used for phenotypic comparison with unsprayed wild-type plants.

[2] = test system: Corn - Hybrid, PPO-Transgenic; assay: Herbicide tolerance evaluation, greenhouse, PPO-transgenic hybrid corn expressing HemG PPO H_N90
Experimental: as §1, with “Plant transformation vectors were constructed for expressing a chloroplast transit peptide operably linked to the PPO H_[…] (SEQ ID NO:1) in transgenic soybean, inbred corn, hybrid corn, and cotton plants, and introduced into seed-derived explants of soybean, inbred and hybrid corn, and cotton, respectively, through Agrobacterium tumefaciens-mediated transformation using standard methods known in the art. The regenerated R0 plants were analyzed to select for events with a single copy insertion for advancement to R1 nursery for R1 seed production. Seeds” for “Seeds”

[3] = test system: Cotton - Inbred, PPO-Transgenic; assay: Herbicide tolerance evaluation, greenhouse, PPO-transgenic cotton expressing HemG PPO H_N90
Experimental: as §1, with “Plant transformation vectors were constructed for expressing a chloroplast transit peptide operably linked to the PPO H_[…] (SEQ ID NO:1) in transgenic soybean, inbred corn, hybrid corn, and cotton plants, and introduced into seed-derived explants of soybean, inbred and hybrid corn, and cotton, respectively, through Agrobacterium tumefaciens-mediated transformation using standard methods known in the art. The regenerated R0 plants were analyzed to select for events with a single copy insertion for advancement to R1 nursery for R1 seed production. Seeds” for “Seeds”

[4] = test system: Soybean - Inbred, PPO-Transgenic; assay: Herbicide tolerance evaluation, greenhouse, PPO-transgenic soybean expressing HemG PPO H_N90
Experimental: as §1, with “Plant transformation vectors were constructed for expressing a chloroplast transit peptide operably linked to the PPO H_[…] (SEQ ID NO:1) in transgenic soybean, inbred corn, hybrid corn, and cotton plants, and introduced into seed-derived explants of soybean, inbred and hybrid corn, and cotton, respectively, through Agrobacterium tumefaciens-mediated transformation using standard methods known in the art. The regenerated R0 plants were analyzed to select for events with a single copy insertion for advancement to R1 nursery for R1 seed production. Seeds” for “Seeds”

[5] = test system: Corn - Inbred, Conventional; assay: Herbicide injury rating, greenhouse, conventional inbred corn
Experimental: as §1

[6] = test system: Corn - Inbred, PPO-Transgenic; assay: Herbicide tolerance evaluation, greenhouse, PPO-transgenic inbred corn expressing HemG PPO H_N90
Experimental: as §1, with “Plant transformation vectors were constructed for expressing a chloroplast transit peptide operably linked to the PPO H_[…] (SEQ ID NO:1) in transgenic soybean, inbred corn, hybrid corn, and cotton plants, and introduced into seed-derived explants of soybean, inbred and hybrid corn, and cotton, respectively, through Agrobacterium tumefaciens-mediated transformation using standard methods known in the art. The regenerated R0 plants were analyzed to select for events with a single copy insertion for advancement to R1 nursery for R1 seed production. Seeds” for “Seeds”

[7] = test system: Soybean - Inbred, Conventional; assay: Herbicide injury rating, greenhouse, conventional soybean
Experimental: as §1

[8] = test system: Cotton - Inbred, Conventional; assay: Herbicide injury rating, greenhouse, conventional cotton
Experimental: as §1

| SMILES | Injury rating, Corn - Hybrid Conventional ([1]; 100 g ai/ha) | Injury rating, Corn - Hybrid Conventional ([1]; 200 g ai/ha) | Injury rating, Corn - Hybrid PPO-Transgenic ([2]; 100 g ai/ha) | Injury rating, Corn - Hybrid PPO-Transgenic ([2]; 200 g ai/ha) | Injury rating, Cotton - Inbred PPO-Transgenic ([3]; 100 g ai/ha) | Injury rating, Cotton - Inbred PPO-Transgenic ([3]; 200 g ai/ha) | Injury rating, Soybean - Inbred PPO-Transgenic ([4]; 100 g ai/ha) | Injury rating, Soybean - Inbred PPO-Transgenic ([4]; 200 g ai/ha) | Injury rating, Corn - Inbred Conventional ([5]; 100 g ai/ha) | Injury rating, Corn - Inbred Conventional ([5]; 200 g ai/ha) | Injury rating, Corn - Inbred PPO-Transgenic ([6]; 100 g ai/ha) | Injury rating, Corn - Inbred PPO-Transgenic ([6]; 200 g ai/ha) | Injury rating, Soybean - Inbred Conventional ([7]; 100 g ai/ha) | Injury rating, Soybean - Inbred Conventional ([7]; 200 g ai/ha) | Injury rating, Cotton - Inbred Conventional ([8]; 100 g ai/ha) | Injury rating, Cotton - Inbred Conventional ([8]; 200 g ai/ha) |
| --- | --- | --- | --- | --- | --- | --- | --- | --- | --- | --- | --- | --- | --- | --- | --- | --- |
| CCOC(=O)C(C)OC(=O)C1(Oc2cc(-n3c(=O)cc(C(F)(F)F)n(C)c3=O)c(F)cc2Cl)CC1 (stereo not shown) [Compound A1, 1-ethoxy-1-oxopropan-2-yl 1-{2-chloro-4-fluoro-5-[3-methyl-2,6-dioxo-4-(trifluoromethyl)-3,6-dihydropyrimidin-1 (2H)-yl]phenoxy}cyclopropanecarboxylate] | 100 | 100 | 0 | 0 | 0 | 0 | 0 | 0 | 100 | 100 | 0 | 0 | 100 | 100 | 100 | 100 |
| CC(OC(=O)C1(Oc2cc(-n3c(=O)cc(C(F)(F)F)n(C)c3=O)c(F)cc2Cl)CC1)C(=O)O (stereo not shown) [Compound A2, 2-{[(1-{2-chloro-4-fluoro-5-[3-methyl-2,6-dioxo-4-(trifluoromethyl)-3,6-dihydropyrimidin-1 (2H)-yl]phenoxy}cyclopropyl)carbonyl]oxy}propanoic acid] | 100 | 100 | 0 | 0 | 0 | 0 | 0 | 0 | 100 | 100 | 0 | 0 | 100 | 100 | 100 | 100 |
| COC(=O)C(C)OC(=O)C1(Oc2cc(-n3c(=O)cc(C(F)(F)F)n(C)c3=O)c(F)cc2Cl)CC1 (stereo not shown) [Compound A3, 1-methoxy-1-oxopropan-2-yl 1-{2-chloro-4-fluoro-5-[3-methyl-2,6-dioxo-4-(trifluoromethyl)-3,6-dihydropyrimidin-1 (2H)-yl]phenoxy}cyclopropanecarboxylate] | 100 | 100 | 0 | 0 | 0 | 0 | 0 | 0 | 100 | 100 | 0 | 0 | 100 | 100 | 100 | 100 |
| C=CCOC(=O)C(C)OC(=O)C1(Oc2cc(-n3c(=O)cc(C(F)(F)F)n(C)c3=O)c(F)cc2Cl)CC1 (stereo not shown) [Compound A7, 1-(allyloxy)-1-oxopropan-2-yl 1-{2-chloro-4-fluoro-5-[3-methyl-2,6-dioxo-4-(trifluoromethyl)-3,6-dihydropyrimidin-1 (2H)-yl]phenoxy}cyclopropanecarboxylate.] | 100 | 100 | 0 | 0 | 0 | 0 | 0 | 0 | 100 | 100 | 0 | 0 | 100 | 100 | 100− | 100 |
